Assays:
Type in all cases: cell-based, human
[1] = tested on: swim-up selected spermatozoa; assay: Forward motility of H2O2 treated swim-up selected spermatozoa; conditions: for forward motility: n=12
Experimental: It is well known that reactive oxygen species (ROS), which may be generated during sperm preparation for IVF, exert detrimental effects on sperm fertilization potential. In particular, among ROS, H2O2 strongly reduces motility when added to sperm samples at micromolar concentrations. Therefore, the effect of LY294002 on H2O2 treated sperm cells was evaluated. The compound was added to swim-up selected spermatozoa samples from oligoasthenospermic patients in amounts of 10 µM either alone or in combination with 200 µM of H2O2. […]

spermatozoa [2] = assay: Computer aided sperm analysis (CASA) of sperm parameters; conditions: 10 µM; 12 oligoasthenospermic subjects; vs control sample; Fig. 6
Experimental: These parameters were determined by computer aided sperm analysis (CASA) in sperm samples from 12 different oligoasthenospermic subjects.

spermatozoa [3] = assay: Sperm viability by eosin test and hypo-osmotic swelling; conditions: 100 µM
Experimental: The effect of 100µM of LY294002 on the viability of the spermatozoa was also assessed (see insert of Fig. 3).

spermatozoa [4] = assay: Total sperm cell recovery in swim-up selection; conditions: n=20
Experimental: (§1) In the experiments the following examples are based on, standard methods of in vitro fertilization have been used. With regard to the details of these methods, reference is made to the "WHO manual" (WHO laboratory manual for the examination of human semen and sperm-cervical mucus interactions, 4th edtition, Cambridge University Press 1999). In particular, the direct swim-up method can be taken from pp. 104 to 106 of this manual.
(§2) The compound was added in a concentration of 10 µM.
Table II summarizes the total sperm cell recovery in the swim-up, which was increased by 43% as compared to the control.

[5] = tested on: spermatozoa obtained by the swim-up method; assay: Motility of spermatozoa after incubation and swim-up selection
Source text: as §1, with “manual. […]” for “manual.”
Fig. 3 summarizes the results obtained in a similar experiment on samples from higher numbers of patients. The sperm cells were submitted to the swim-up selection method.
An improvement of percentage progressive motility after 2 hours of incubation of the sperm cells with LY294002 was clearly detectable, both on the rapid component (a) and on the rapid and slow component (a+b).
The experiments described above were performed on samples from oligoasthenospermic individuals. The effects on the stimulation of progressive motility by LY294002 are more pronounced the more serious the sperm pathology of patients is (oligospermia, asthenospermia, teratospermia). However, the effect of this compound could also be observed in normospermic subjects. […]

[6] = tested on: swim-up selected spermatozoa; assay: Forward motility of LiCl treated swim-up selected spermatozoa; conditions: 10 µM, two hours, with or without different concentrations of LiCl; Fig. 7
Source text: LiCl is also a known inhibitor of sperm cell motility.

spermatozoa [7] = assay: Motility of spermatozoa in seminal liquid, evaluated blindly under the microscope (WHO manual)
Experimental: as §1
Spermatozoa were prepared according to the standard procedures of IVF. Briefly, spermatozoa were prepared from 3 oligoasthenospermic subjects undergoing semen analysis for couple infertility after informed consent. 10 µM of the PI3K inhibitor LY294002 were added directly to the seminal liquid and incubated for 2 hours […] at 37°C and 5% CO2. The motility of the spermatozoa was then blindly evaluated under the microscope according to WHO manual procedures.
as §2

[8] = 10 µM, 2 hours of incubation, 12 individual patients, swim-up, Fig. 4

SMILES: OO [H2O2]
- forward motility ([1]; 200 µM H2O2 alone, oligoasthenospermic patients, control 45.4±5.0, P<0.0001 vs Control): 26.5±4.9 (n=12) %

SMILES: O=c1cc(N2CCOCC2)oc2c(-c3ccccc3)cccc12 [LY294002, 2-(4-morpholinyl)-8-phenyl-4H-1-benzopyran-4-one]
- detrimental effects exerted by 200 µM H2O2 on sperm motility ([1]; 10 µM LY294002 added to the incubation medium): completely reversed
- forward motility ([1]; 10 µM LY294002 in combination with 200 µM H2O2, P<0.002 vs H2O2): 52.6±5.5 (n=12) %
- forward motility ([1]; 10 µM alone, oligoasthenospermic patients, control 45.4±5.0, P<0.0001 vs Control): 71.7±3.2 (n=12) %
- average path velocity (VAP) (spermatozoa [2]): increased in a statistically significant manner
- hyperactivated sperm fraction (HA) (spermatozoa [2]): increased in a statistically significant manner
- percentage curvilinear velocity (VCL) (spermatozoa [2]): increased in a statistically significant manner
- straight-line velocity (VSL) (spermatozoa [2]): increased in a statistically significant manner
- sperm viability (spermatozoa [3]; 48 hours of incubation (not shown)): no effect on sperm viability
- vitality of the cells (spermatozoa [3]; incubation for two hours, eosin test and hypo-osmotic swelling): did not alter the vitality
- increase of total sperm cell recovery in the swim-up vs control (spermatozoa [4]; 10 µM): 43%
- Sperm recovery in swim up (spermatozoa [4]; LY 10 µM, control 13.3 ± 3.9, p<0.005): 19.0 ± 4.8 10^6
- percentage progressive motility, rapid and slow component (a+b) [5, 8]: improvement
- percentage progressive motility, rapid component (a) [5, 8]: improvement
- forward motility of spermatozoa ([5]; 10 µM, two hours, then swim-up selection, 88 randomly selected subjects, control 53.5 ± 2.0 %): 76.3 ± 1.5%
- additional enhancement of spermatozoa motility ([5]; 100 µM compared with 10 µM, swim-up, Fig. 3): about 10%
- progressive motility ([5]; 100 µM, 2 hours, then swim-up selection, 7 samples, Fig. 2): significant increase
- activation at 10 µM ([5]; Homo sapiens, Spermatozoa, 10 µM, 21 patients vs control 40 patients, swim-up, Fig. 3, read-out: increase in the progressive motility as compared to the control): 58%
- activation at 100 µM ([5]; Homo sapiens, Spermatozoa, 100 µM, 29 patients vs control 40 patients, swim-up, Fig. 3, read-out: increase of the motility as compared to the control): 67%
- EC50 ([5]; Homo sapiens, Spermatozoa, samples from normospermic individuals, 0 to 1000 µM, swim-up, Fig. 5, read-out: EC50 (effect dose of 50%) on the rapid forward motility): ~1 µM
- % Sperm Forward Motility, Swim up-selected sperm ([5]; LY 10 µM added to seminal plasma, then swim-up, 20 oligoasthenospermic patients, control 54.2±4.5, p<0.001): 68.6±3.9%
- LiCl induced inhibition of sperm motility [6]: reversing the effect
- rapid motility (a) of the spermatozoa in the seminal liquid (spermatozoa [7]; 10 µM, 2 hours, 37°C, 5% CO2, 3 oligoasthenospermic subjects, Fig. 1): increase of rapid motility
- percentage of forward motility (rapid and slow component a + b) in the seminal liquid (spermatozoa [7]; 10 µM, 2 hours, 37°C, 5% CO2, 3 oligoasthenospermic subjects, Fig. 1B): increase
- % Sperm Forward Motility, Sperm in Seminal Plasma (spermatozoa [7]; LY 10 µM added to seminal plasma, 20 oligoasthenospermic patients, control 35.7±5.1, p<0.001): 49.8±4.7%

Reference: patent EP1196153B1, “PROCESS FOR THE IMPROVEMENT OF SPERMATOZOA FERTILIZATION ACTIVITY” (Applied Research Systems ARS Holding N.V., priority 1999, dated 2001)
